This is an account of results in US20170000784A1, “Autophagy Inhibitors” (priority 2013, published 2017).

The structures appear in SMILES notation. Read-outs that look alike come from different tables or passages of the source.

Usually IC50 stands for the point on the concentration scale where inhibition reaches its midpoint.

What all share (format): cell-based
In assay [1] the test system is UACC-1940 melanoma cell line. Nature of the assay: Cell viability (IC50) screen, CellTiter Glo, UACC-1940. To be noted: Homo sapiens. How it is done:
(§1) U2OS cells were seeded at 500 cells per well in 5A McCoy's with 10% FBS in 96-well clear bottom, black-walled tissue culture plates. All melanoma cell lines (A375, UACC-91, UACC-257, UACC-502, UACC-903, UACC-1308, UACC-1940, UACC-2534, and UACC-3291) were seeded at 5,000 cells per well in RPMI 1640 with 10% FBS in 96-well clear bottom, black-walled tissue culture plates. After 24 hour incubation, cells were treated with VATG compounds in triplicate with a 10-point half log dose response from […] for 24 and 48 hours. Medium was removed and 2× CellTiter Glo (Promega, G7571) reagent mixed 1:1 with Opti-MEM (Invitrogen, 31985062) was added at 100 μL per well and incubated at room temperature for 15 minutes while rocking. 75 μL per well was moved to a white-walled 96-well plate and luminescence quantified using the 96 LUM program on an EnVision plate reader (PerkinElmer) and exported for analysis. All triplicate data points were averaged and luminescent readings for each treatment were normalized to vehicle control for change in viability. Dose response curves were input into SigmaPlot for IC50 calculations (Systat Software Inc).

Assay [2] deals with UACC-903 melanoma cell line. Nature of the assay: Cell viability (IC50) screen, CellTiter Glo, UACC-903. To be noted: Homo sapiens. The protocol:
as §1
In general terms: ATP-based viability assays read luminescence as a measure of living cells.

The subject of assay [3] is nine melanoma cell lines (A375, UACC-91, UACC-257, UACC-502, UACC-903, UACC-1308, UACC-1940, UACC-2534, UACC-3291). Kind of assay: Cell viability (IC50) screen, panel of nine melanoma cell lines. To be noted: Homo sapiens, read-out: IC50 values, range over the melanoma cell lines. The protocol:
as §1
Next, the sensitivity of each melanoma cell line to CQ, QN, Example 7, and Example 27 was assessed.

Another assay relates to U2OS cells. Kind of assay: Transmission electron microscopy of lysosomal vesicles. To be noted: 3 μM for 3 hours, FIG. 12B. The protocol:
U2OS cells were seeded in 10 cm plates in 5A McCoy's with 10% FBS at 1×10^6 cells per plate. After 24 hours incubation, cells were treated with DMSO (vehicle control), CQ (3 or 100 μM), quinicrine (3 μM), VATG-027 (3 μM), or VATG-032 (3 μM) for three hours. Following, cells were trypsinized, washed, pelleted, and resuspended in 2% glutaraldehyde fixative (Sigma, G5882). Cell pellets were embedded in 2% agarose, post-fixed in osmium tetroxide, and dehydrated with an acetone series. Cell samples were infiltrated and embedded in Poly/Bed 812 resin and polymerized at 60° C. for 24 hours. Ultrathin sections of 70 nm were generated with a Power Tome XL (Boeckeler Instruments) and placed on copper grids. Sections were examined using a JEOL 100Cx Transmission Electron Microscope at 100 kV. Lysosomal structures were identified by a single membrane structure lacking cytosolic components (FIG. 12). Transmission electron microscopy services were performed by Michigan State University Center for Advanced Microscopy (East Lansing, Mich.).
To test the theory, lysosomal turnover was first evaluated by visualizing lysosomes using transmission electron microscopy (TEM). U2OS cells were initially treated with a CQ concentration above the effective dose (100 μM) for 3 hours as a positive control, and were then subsequently fixed and imaged. […] Once this phenotype was established, cells were treated with a lower concentration (3 μM) of CQ to compare each compound at the same concentration.

Assay [4] has as its system UACC-91 melanoma cell line. Kind of assay: Cell viability (IC50) screen, CellTiter Glo, UACC-91. To be noted: Homo sapiens. How it is done: as §1
Assay [5] concerns UACC-2534 melanoma cell line. Nature of the assay: Cell viability (IC50) screen, CellTiter Glo, UACC-2534. To be noted: Homo sapiens. The protocol: as §1
The subject of assay [6] is UACC-1308 melanoma cell line. Kind of assay: Cell viability (IC50) screen, CellTiter Glo, UACC-1308. To be noted: Homo sapiens. How it is done: as §1
Assay [7] concerns lysosomal protease cathepsin B in U2OS cells. Kind of assay: Immunoblot of active cathepsin B. To be noted: 3 μM and 30 μM for 6 hours; effects stated at 30 μM (CQ: at either dose). The protocol:
For Western blotting, U2OS cells were seeded in 10 cm plates in 5A McCoy's with 10% FBS at 1×10^6 cells per plate. All melanoma lines were seeded in 10 cm plates in RPMI 1640 with 10% FBS at 1×10^6 cells per plate. After 24 hours, cells were treated with CQ, QN, Example 27, or Example 7 in a dose response of 0.3 μM, 1 μM, 3 μM, 10 μM, and 30 μM for three hours. A375 were treated with PLX-4032 (Selleck Chemicals, S1267) at 10 nM, 100 nM, and 1 μM for three hours with and without CQ, QN, Example 7, and Example 27 at 3 μM and 30 μM. After treatment, cells were lysed [10 mM KPO4, 1 mM EDTA, 10 mM MgCl2, 5 mM EGTA, 50 mM bis-glycerophosphate, 0.5% NP40, 0.1% Brij35, 0.1% sodium deoxycholate, 1 mM NaVO4, 5 mM NaF, 2 mM DTT, and complete protease inhibitors (Sigma, P8340-5 mL)] and 50 μg of protein was resolved by SDS-PAGE. Proteins were transferred to PVDF membranes and probed with primary antibodies [LC3 (Sigma, L7543-200UL), anti-α-tubulin (Sigma, T6199), cathepsin B (Santa Cruz, sc-13985)] for 16 hours at 4° C. followed by a secondary antibody [HRP-linked rabbit or mouse IgG (GE Healthcare, NA934 or NA931) or Odyssey IRDye 680CW Goat anti-rabbit IgG (LI-COR, 926-32221) or IRDye 800CW Goat anti-mouse IgG (LI-COR, 926-32210)] for 1 hour at room temperature. Proteins were detected with enhanced chemiluminescence or using the Odyssey machine and quantified (FIGS. 12, 15, 16, 7 and 11).
Deacidification of lysosomes would be expected to not only prevent the maturation and turnover of the lysosomes from early to late, but also affect the functionality of lysosomal enzymes and consequently the turnover of lysosomal constituents. To determine if lysosomal activity was inhibited, lysosomal protease cathepsin B activity was measured by immunoblotting (FIG. 12C). Lysates were harvested from cells and treated with CQ, QN, Example 7, and Example 27 at both 3 μM and 30 μM for 6 hours.
Background: A western blot detects proteins with antibodies after separation by electrophoresis.

Where [8] appears, read: UACC-1940 cell viability, CellTiter Glo, read-out: IC50.
Where [9] appears, read: UACC-903 cell viability, CellTiter Glo, read-out: IC50.
The mark [10] stands for this setting: cell viability, nine melanoma cell lines.
[11] abbreviates: UACC-91 cell viability, CellTiter Glo, read-out: IC50.
[12] abbreviates: UACC-2534 cell viability, CellTiter Glo, read-out: IC50.
The mark [13] stands for this setting: UACC-1308 cell viability, CellTiter Glo, read-out: IC50.

Take `CCN(CC)CCCC(C)Nc1c2ccc(Cl)cc2nc2ccc(OC)cc12` (centres unmarked) [Quinacrine, quinacrine, reference compound]: the IC50 in assay [1] (setting [8]) was 1900 nM; in assay [2] (setting [9]), 2700 nM; in assay [3] (setting [10]), 1900 to 3900 nM; in assay [4] (setting [11]) it was 2900 nM; in assay [5] (setting [12]), 2200 nM; in assay [6] (setting [13]), 3900 nM. Moreover, in the assay with U2OS cells, the “size and number of electron-lucent and electron-dense vesicles (TEM)” value (“size and number” for short) is “increase in both the size and number”. In addition, the “active cathepsin B” value in assay [7] is reported as “nearly complete loss”.

For the molecule `CN1CCN(CCNc2c3c(nc4cc(Cl)ccc24)CCCC3)CC1` [Example 27, 6-Chloro-N-(2-(4-methylpiperazin-1-yl)ethyl)-1,2,3,4-tetrahydroacridin-9-amine], the IC50 in assay [1] is 21600 nM; in assay [2] (UACC-903), 27200 nM; in assay [3], 15000 to 42000 nM; in assay [4], 22200 nM; in assay [5] it was 26600 nM; in assay [6], 14900 nM. Also, the “electron-opaque structures, consistent with lipid droplets (TEM)” value in the assay on U2OS cells is listed as “appearance of several electron-opaque structures”. The “size and number” value in the assay on U2OS cells was “increase in both the size and number”. For the same molecule, in assay [7], the “active cathepsin B” value is reported as “significant decrease”.

For the molecule `COc1ccc2nc3cc(Cl)ccc3c(NCCCCN3CCN(C)CC3)c2c1` [Example 7, 6-Chloro-2-methoxy-N-(4-(4-methylpiperazin-1-yl)butyl)acridin-9-amine], the IC50 is 4000 nM in assay [1] (setting [8]); 1500 nM in assay [2] (setting [9]); 400 to 2700 nM in assay [3] (setting [10]); 500 nM in assay [4] (setting [11]); 2700 nM in assay [5] (setting [12]); 2100 nM in assay [6] (setting [13]). Further, the “electron-opaque structures, consistent with lipid droplets (TEM)” value with U2OS cells was “appearance of several electron-opaque structures”. For the same molecule, the “size and number” value in the assay on U2OS cells is “increase in both the size and number”. The “active cathepsin B” value in assay [7] is “nearly complete loss”.
